Laboratory results published in patent US5955508A, “Method for the enhancement of lymphocyte activity against opportunistic microbial pathogens” (priority 1996, dated 1999).

Experiments:
K562 human tumor cells [1] = assay: Incidence and metastasis of human K562 tumors in SCID mice reconstituted with human PBMC; type: in vivo
Procedure: The purpose of the present experiments was to determine whether d-FEN can enhance the ability of the human immune system to kill a human tumor cell line, vis. K562 human chronic myelogenous leukemia cells. Toward this end d-FEN and vehicle (VEH) treated young male severe combined immunodeficient (SCID) beige mice, reconstituted 4 days previously with human peripheral blood mononuclear cells (PBMC) obtained from two human volunteers, were injected with K562 cells and tumor size and number measured 13-18 days later.
SCID mice (n=36) were obtained from Harlan Sprague-Dawley Inc. (Indianapolis, Ind.). This inbred strain of mice are devoid of T, B, and natural killer (NK) cells. The animals were housed 3/cage in an AAALAC approved facility with a 12 h light-dark cycle (lights on at 07:00 h). The temperature and humidity of the facility were maintained between 72-75° F. and 52-55% respectively. Food (Purina mouse chow) and water were available ad libitum.
Protocol. The animals were divided into groups of 6 and subjected to the following treatment for each of the 2 human donors tested:
The mice treated with d-FEN (10 mg/kg/day, p.o.) received the drug daily in their drinking water beginning 10 days prior to inoculation with human PBMC. On the day of PBMC injection (3×10^7 human PBMC/mouse, i.p.) the dose of d-FEN was reduced to […]. The average daily water intakes and body weights of the mice were 6 ml and 20 g, respectively. Therefore, a dose of 6 mg/kg equaled 2 mg of d-FEN per 100 ml of water. Four days after reconstitution with human PBMC, 1×10^7 K562 human tumor cells/mouse were injected i.p. The animals were sacrificed between 11:00 and 13:00 h 13-18 days after K562 cell injection (17-22 and 27-32 days, respectively, after transfection with human PBMC and the start of d-FEN treatment). The animals were thoroughly necropsied and tumor sites counted, excised, weighed and fixed for histological analysis.
For reconstitution of SCID mice with human PBMC, 500 ml of venous blood was drawn into sterile plastic pouches containing preservative free heparin. Blood was drawn by Apheresis Lab nurses at LUMC (Loyola University Medical Center) and was diluted with an equal volume of HBSS. The diluted blood (20 ml) was layered over 10 ml of Histopaque 1077 (Sigma Chemical Company, St. Louis, Mo.) and centrifuged at 1000×g for 30 min. After centrifugation, the mononuclear cell layer was recovered from the interface and washed twice in HBSS. After microscopic enumeration, the PBMC were resuspended in HBSS at a concentration of 1×10^8 cells/ml, and 0.3 ml (3×10^7 cells) of the cell suspension was injected (i.p.) into each SCID mouse.
(§1) The K562 cell line originated from a chronic myelogenous leukemia patient and was obtained from Dr. T. Ellis (Director, Cellular Immunology Laboratory, LUMC). The K562 cells used for assessment of cytotoxic activity were maintained in long term cultures using Corning 25 cm^2 tissue culture flasks (Corning Glass Works, Corning, N.Y.) containing RPMI 1640 (Gibco Laboratories, Grand Island, N.Y.) supplemented with low LPS 10% fetal bovine serum (FBS; Gibco), 100 units/ml penicillin, 100 μg/ml streptomycin (Whittaker M. A. Bioproducts, Walkersville, Md.), 0.1 mM non-essential amino acids, and 2 mM L-glutamine (Gibco). This medium was used throughout, except where noted, and is referred to as "culture medium". The K562 cells were grown in suspension and were passaged three times per week by transfer of 10^6 K562 cells into a flask containing 10 ml of fresh culture medium. The K562 cells injected into the SCID mice were supplemented with fresh medium at a 1:3 dilution the day before administration. They were washed once in medium, pelleted by centrifugation at 500 ×g for 10 min., then resuspended at a concentration of 5×10^7. Subsequently, 0.2 ml (1×10^7 cells) of the cell suspension was injected (i.p.) into each SCID mouse. The K562 cells were administered to the animals four days after the injection of PBMC.

K562 human tumor cells [2] = assay: Natural killer cell cytotoxicity of human PBMC against K562 tumor cells in vitro; type: cell-based
Procedure: Prior to conducting the above experiment, we examined the dose dependent effects of d-FEN on the ability of human PBMC obtained from five healthy volunteers (person Caucasians) to kill human K562 tumor cells in vitro. The potential cytotoxic enhancing effects of d-FEN and d-norFEN were compared using PBMC from two of the five human donors.
For assessment of immunological parameters of human PBMC, venous blood as aseptically drawn into sterile 10 ml tubes containing 20 U/ml preservative free heparin, diluted with an equal volume of Hank's Balanced Salt Solution (HBSS), layered over Lymphocyte Separation Medium (LSM, Bionetics, Kensington, Md.) and centrifuged at 1,000 ×g for 30 min. After centrifugation, the mononuclear cell layer was recovered from the interface and washed twice in HBSS and enumerated.
as §1
The K562 tumor cell lines maintained in vitro were washed once in culture medium, pelleted by centrifugation at 500×g for 10 min and resuspended in approximately 0.1 ml of culture medium. Subsequently, 100 μCi of [^51 Cr] (New England Nuclear, Boston, Mass.) was added to 1×10^5 cells in a final volume of 0.2 ml. The cells were incubated at 37° C. with 5% CO2 for 1 h with agitation every 10 min, then washed 3 times in HBSS, resuspended to 5×10^4 cells/ml in culture medium and 0.1 ml (5×10^3) aliquoted to each well of a 96 well round bottom assay plate (Corning Glass Works, Corning, N.Y.). Radiolabelled K562 was cultured for 4 h with lymphocytes at effector to target ratios ranging from 50:1 to 6:1. Following 4 h of culture the media was removed using a Skatron harvesting press (Skatron Inc., Sterling, Va.) and associated radioactivity determined. Maximum release was obtained by adding 0.05% Nonidet P-40 (Sigma Chemical Co., St. Louis, Mo.).
The results have been expressed as % cytotoxicity and calculated by the formula: % cytotoxicity=[(experimental DPM-minimum DPM)/(maximum DPM-minimum DPM)]×100.
All experimental means were calculated from triplicate values. Lytic units (LU) were calculated using a computer program written by David Coggins, FCRC, Frederick, Md.

[3] = K562 + PBMC + d-FEN (10 then 6 mg/kg/day p.o.)
[4] = K562 + PBMC + d-FEN (10 then 6 mg/kg/day p.o.), p = 0.05

Compound: CCN[C@@H](C)Cc1cccc(C(F)(F)F)c1 [d-FEN]
- Number of Mice Showing Multiple Tumor Sites (K562 human tumor cells [1]; [3]): 1/12
- Percent of Mice Showing Multiple Tumor Sites / tumor metastasis (K562 human tumor cells [1]; [3]): 8%
- Number of Mice Having Tumors (K562 human tumor cells [1]; [4]): 5/12
- Percent of Mice Having Tumors (K562 human tumor cells [1]; [4]): 42%
- Body Weight (K562 human tumor cells [1]; K562 + PBMC + d-FEN (10 then 6 mg/kg/day p.o., drinking water)): 17.5 ± 2.1 g
- incidence of histopathologically confirmed lymphomas in words (K562 human tumor cells [1]; d-FEN treated SCID mice, p=0.05): significantly (p=0.05) reduced incidence
- body weights and water intakes in words (K562 human tumor cells [1]; d-FEN treated vs control SCID mice): did not differ from those of the control animals
- tumor metastasis in words (K562 human tumor cells [1]; d-FEN treated vs other two groups, p=0.6): did not reach significance
- anorexigenic action and weight loss (K562 human tumor cells [1]; doses used during the studies): No effect of this type was observed
- largest tumor (K562 human tumor cells [1]; one of the d-FEN treated mice, with metastasis): 0.833 g
- Percent Change in Cytotoxicity (Mean ± SEM) (K562 human tumor cells [2]; 0.25 ng/ml): 19 ± 2%
- percent increase in cytotoxicity (K562 human tumor cells [2]; 0.25 ng/ml, DONOR #1): 22%
- percent increase in cytotoxicity (K562 human tumor cells [2]; 0.25 ng/ml, DONOR #2): 19%
- Percent Change in Cytotoxicity (Mean ± SEM) (K562 human tumor cells [2]; 0.50 ng/ml): 28 ± 4%
- percent increase in cytotoxicity (K562 human tumor cells [2]; 0.50 ng/ml, DONOR #1): 36%
- percent increase in cytotoxicity (K562 human tumor cells [2]; 0.50 ng/ml, DONOR #2): 21%
- Percent Change in Cytotoxicity (Mean ± SEM) (K562 human tumor cells [2]; 1.00 ng/ml): 16 ± 3%
- percent increase in cytotoxicity (K562 human tumor cells [2]; 1.00 ng/ml, DONOR #1): 23%
- percent increase in cytotoxicity (K562 human tumor cells [2]; 1.00 ng/ml, DONOR #2): 17%
- Percent Change in Cytotoxicity (Mean ± SEM) (K562 human tumor cells [2]; 4.00 ng/ml): 11 ± 5%
- Percent Change in Cytotoxicity (Mean ± SEM) (K562 human tumor cells [2]; 20.00 ng/ml): -33 ± 5%
- Percent Change in Cytotoxicity (Mean ± SEM) (K562 human tumor cells [2]; 50.00 ng/ml): -53 ± 6%
- Percent Change in Cytotoxicity (Mean ± SEM) (K562 human tumor cells [2]; 100.00 ng/ml): -87 ± 2%
- dose dependent effect on cytotoxicity in words (K562 human tumor cells [2]; PBMC of five healthy volunteers, p<0.001): low doses of d-FEN enhanced whereas higher doses reduced cytotoxicity
- d-FEN vs d-norFEN effect on cytotoxicity in words (K562 human tumor cells [2]; PBMC of two donors): virtually identical effects
- effect on capacity of human NK cells to kill K562, in words (K562 human tumor cells [2]; conclusion): augments the capacity of human NK cells to kill the human tumor cell line, K562
